{"source": "patent EP0182609A2", "about": "“Polycyclic biocidal compounds, their synthesis, formulations containing them” (THE WELLCOME FOUNDATION LIMITED, priority 1984, dated 1986)", "key": {"P388/0 tumor cells": {"tested_on": "P388/0 tumor cells", "assay": "Lymphocytic Leukemia P388/0 Test", "assay_type": "in vivo, CD2-F1 mice", "details": "for Optimal Dose: intraperitoneally on days 1, 5, and 9 relative to tumor implant; for T/C x 100% (Excluding 30 Day survivors): median survival time treated/control at optimal dose, i.p. days 1, 5, and 9, criterion for activity >120%", "from_the_text": "Methods for evaluating the antitumour activity of these compounds are essentially those used in the Tumor Panel by the Developmental Therapeutics Program, Division of Cancer Treatment, National Cancer institute, A. Goldin, et al., Methods in Cancer Research, Vol. XVI, p. 165, Academic Press (1979). Some modifications, in dose level and schedule have been made to increase the testing efficiency.\n(§1) CD2-F1 mice, of the same sex, weighing 20t3g are used for this test. Control and test animals are injected intraperitoneally with a suspension of -10^6 viable P388/0 tumor cells on day 0. In each test several dose levels which bracket the LD20 for the compound are evaluated; each dose level group contains 6 animals. The test compounds are prepared either in physiologic saline containing 0.05% Tween 80 or distilled water containing 5% dextrose and are administered intraperitoneally on days 1, 5, and 9 relative to tumor implant. Doses are on a mg/kg basis according to individual animals' body weights. The day of death for each animal is recorded, the median identified for each group and the ratios of median survival time for treated (T)/control (C) groups are calculated. The criterion for activity is T/C x 100 >120%."}, "[1]": {"assay": "LD20 determined in the P388/0 test", "assay_type": "in vivo", "experimental": "as §1"}, "Saccharomyces cerevisiae": {"tested_on": "Saccharomyces cerevisiae", "assay": "In vitro antifungal activity, minimum fungistatic concentration", "assay_type": "cell-based", "details": "read-out: Minimum Fungistatic Concentration", "experimental": "The minimum fungistatic concentrations of compounds of the formula (I) against various fungi were obtained using standard techniques. The tests were carried out in either medium A or medium B (see below) and the standard used in each instance was Miconazole nitrate."}, "[2]": {"details": "intraperitoneally on days 1, 5, and 9, tumor-bearing mice"}}, "note": "Like-named read-outs stand apart in the source and are kept apart here."}
{"smiles": "CC(CO)(CO)NCc1c2ccccc2cc2c1ccc1ccccc12", "note": "[Example 1, 2-((7-Benz[a]anthracenylmethyl)amino)-2-methyl-1,3-propanediol methanesulfonate]", "values": [{"measurement": "Optimal Dose", "setting": "P388/0 tumor cells", "result": 220, "unit": "mg/kg"}, {"measurement": "T/C x 100% (Excluding 30 Day survivors)", "setting": "P388/0 tumor cells", "result": "+270%"}, {"measurement": "LD20", "setting": "[1]; [2]", "result": 180, "unit": "mg/kg"}]}
{"smiles": "CC(CO)(CO)NCc1c2ccccc2c2ccc3cccc4ccc1c2c43", "note": "[Example 2, 2-[(Benzo[a]pyren-6-ylmethyl)amino]-2-methyl-1,3-propanediol methanesulfonate]", "values": [{"measurement": "Optimal Dose", "setting": "P388/0 tumor cells", "result": 111, "unit": "mg/kg"}, {"measurement": "T/C x 100% (Excluding 30 Day survivors)", "setting": "P388/0 tumor cells", "result": "+204%"}, {"measurement": "LD20", "setting": "[1]; [2]", "result": 100, "unit": "mg/kg"}]}
{"smiles": "CC(CO)(CO)NCc1c2ccccc2cc2cc3ccccc3cc12", "note": "[Example 3C, 2-[(5-naphthacenylmethyl)amino]-2-methyl-1,3-propanediol methanesulfonate]", "values": [{"measurement": "Optimal Dose", "setting": "P388/0 tumor cells", "result": 60, "unit": "mg/kg"}, {"measurement": "T/C x 100% (Excluding 30 Day survivors)", "setting": "P388/0 tumor cells", "result": "+195%"}, {"measurement": "LD20", "setting": "[1]; mouse, in vivo, ip", "result": 50, "unit": "mg/kg"}]}
{"smiles": "CC(CO)(CO)NCc1c2c(cc3ccccc13)Cc1ccccc1-2", "note": "[Example 4B, 2-[(11H-Benzo[b]fluoren-5-ylmethyl)amino]-2-methyl-1,3-propanediol methanesulfonate]", "values": [{"measurement": "Optimal Dose", "setting": "P388/0 tumor cells", "result": 225, "unit": "mg/kg"}, {"measurement": "T/C x 100% (Excluding 30 Day survivors)", "setting": "P388/0 tumor cells", "result": "+280%"}, {"measurement": "LD20", "setting": "[1]; mouse, in vivo, ip", "result": 300, "unit": "mg/kg"}]}
{"smiles": "CC(CO)(CO)NCc1cc2ccc3ccccc3c2c2ccccc12", "note": "[Example 5B, 2[(Benzo[c]phenanthren-5-ylmethyl)amino]-2-methyl-1,3-propanediol methanesulfonate]", "values": [{"measurement": "MIC", "setting": "Saccharomyces cerevisiae", "result": "≤ 0.4", "unit": "µg/mL"}, {"measurement": "Optimal Dose", "setting": "P388/0 tumor cells", "result": 15, "unit": "mg/kg"}, {"measurement": "T/C x 100% (Excluding 30 Day survivors)", "setting": "P388/0 tumor cells", "result": "+140%"}, {"measurement": "LD20", "setting": "[1]; [2]", "result": 10, "unit": "mg/kg"}]}
{"smiles": "CC(CO)(CO)NCc1c2ccccc2c(Cl)c2cc3ccccc3cc12", "note": "[Example 6B, 2-[(12-Chloro-5-naphthacenylmethyl)amino]-2-methyl-1,3-propanediol methanesulfonate]", "values": [{"measurement": "Optimal Dose", "setting": "P388/0 tumor cells", "result": 75, "unit": "mg/kg"}, {"measurement": "T/C x 100% (Excluding 30 Day survivors)", "setting": "P388/0 tumor cells", "result": "+150%"}, {"measurement": "LD20", "setting": "[1]; mouse, in vivo, ip", "result": 70, "unit": "mg/kg"}]}
{"smiles": "CC(CO)(CO)NCc1c2ccccc2c(Cl)c2cc3ccccc3cc12.Cl", "note": "[Example 6C, 2-[(12-chloro-5-naphthacenylmethyl)amino]-2-methyl-1,3-propanediol hydrochloride]", "values": [{"measurement": "Optimal Dose", "setting": "P388/0 tumor cells", "result": 40, "unit": "mg/kg"}, {"measurement": "T/C x 100% (Excluding 30 Day survivors)", "setting": "P388/0 tumor cells", "result": "+150%"}, {"measurement": "LD20", "setting": "[1]; [2]", "result": 70, "unit": "mg/kg"}]}
{"smiles": "Clc1ccc(COC(Cn2ccnc2)c2ccc(Cl)cc2Cl)c(Cl)c1", "note": "(centres unmarked) [Miconazole Nitrate, Miconazole nitrate, reference compound]", "values": [{"measurement": "MIC", "setting": "Saccharomyces cerevisiae; medium A or medium B", "result": "≤ 0.4", "unit": "µg/mL"}]}
